Legend:
[1] = tested on: SH-SY5Y human neuroblastoma xenograft; format: in vivo, Nu/nu female mice
Procedure: Methods: Immunodeficient athymic NMRI-Foxn1^nu/Foxn1^nu nude mice were subcutaneously injected with SH-SY5Y cells. This cell line was genetically modified to express luciferase, which would allow the in vivo study not only of tumor size, but also of metastasis formation. When tumors reached an average volume of 80 mm^3, mice were randomly distributed into different treatment groups. ABTL0812 was administered orally at 120 mg/kg daily. In parallel we used cisplatin, a drug included in the chemotherapy induction phase for the treatment of neuroblastoma. Cisplatin was administered at 2 mg/kg i.p. twice a week (Wang et al. 2010). Additionally, we studied the effect of combining ABTL0812 with cisplatin at the indicated doses.
C. Metastasis formation. In order to investigate the effect of ABTL0812 in metastasis formation we used a SH-SY5Y cell line transduced with a luciferase reporter vector. As described above, mice bearing xenograft tumors derived from this cell line were treated with ABTL0812, cisplatin or the combination of both drugs. After ten days of treatment animals were sacrificed and metastasis were assessed ex vivo by monitoring luciferase-expressing cells in lung and liver.

[2] = tested on: A549 (human lung carcinoma) cell line; experiment: Cell viability (MTT) of ABTL0812 in combination with docetaxel in lung cancer; format: cell-based; settings: A549, three days, FBS 0.5%, single agent
Procedure: Methods: A549 cells were incubated with increasing concentrations of ABTL0812 (3-300 μM), docetaxel (0.01-100 μM), or a combination of both (subIC50, i.e., 20 μM fixed concentration of ABTL812 and 0.01-100 μM docetaxel) for three days (FBS 0.5%). […] In the denominator, (Dx)1 is for D1“alone” that inhibits a system x %, and (Dx)2 is for D2“alone” that inhibits a system x %.

[3] = tested on: A549 human lung adenocarcinoma xenograft; format: in vivo; settings: ABTL0812 30 mg/kg/day oral 5 times a week; docetaxel 5 mg/kg i.p. once a week
Procedure: Methods: Mice were injected with 5×10^6 A549 cells in each flank to induce tumor formation. […] ABTL0812 was administered by the oral route at 30 mg/kg/day, 5 times a week. Docetaxel 5 mg/kg was administered intra-peritoneally once a week (Coxon et al. 2012). Tumor volume and body weight were monitorized 3 times a week.

[4] = tested on: H157 human squamous lung cancer xenograft; format: in vivo; settings: day 20 after beginning of treatments; ABTL0812 120 mg/kg oral; end-point tumor volume >1000 mm^3 or welfare
Procedure: Objective: Investigate survival rate for ABTL0812 alone and in combination with paclitaxel and carboplatin (P/C) with a Kaplan-Meier analysis in a human squamous NSCLC xenograft model Methods: Mice were injected with 5×10^6 H157 cells in one flank to induce tumor formation. […] The different conditions studied were vehicle, 120 mg/kg oral ABTL0812 daily, 15 mg/kg carboplatin+50 mg/kg paclitaxel by i.p. route and an additional group receiving the combination of these two regimens. […] Tumor volume was monitored 3 times a week.

H1957 cells = experiment: Cell viability (MTT) of ABTL0812 in combination with paclitaxel, H1957; format: cell-based, human; settings: H1957, 48 hours, 0.1% FBS, single agent
Procedure: (§1) Methods: A549 cells were incubated with increasing concentrations of ABTL0812 (3-300 μM), paclitaxel (0.003-1 μM), or a combination of both using subIC50 fixed concentration of ABTL0812 and 0.003-1 μM paclitaxel for 72 hours in DMEM with 0.1% FBS. H157, H1957 and HTB-812 cells were incubated with increasing concentrations of paclitaxel (0.001-10 μM) alone and in combination with subIC50 fixed concentration of ABTL0812 for 48 hours in DMEM with 0.1% FBS. Cell viability was evaluated in all cases by MTT assay and IC50's were calculated for paclitaxel and the combination. The concentrations of the combinations for the different cell lines were:
(§2) Finally, the Combination Index (CI), as described in the previous section, was calculated for the values of paclitaxel IC50.

[5] = tested on: MDB-DA-231 (human triple negative breast cancer); experiment: Cell viability (MTT) of ABTL0812 alone or with paclitaxel in breast cancer; format: cell-based
Procedure: Methods: MDB-DA-231 cells were seeded in 24-well plates together with increasing concentration of paclitaxel (1-100 nM) in the presence of 5, 10 and 20 μM of ABTL0812 (all doses below to an IC25) for 48h (0.5% FBS). Cell viability was studied by the MTT assay and several parameters were determined to evaluate a possible synergism. First the IC50 for each drug alone or the combination was calculated.

[6] = tested on: EGI-1 human cholangiocarcinoma xenograft; experiment: Human cholangiocarcinoma (EGI-1) xenograft, gemcitabine and cisplatin; format: in vivo, Nu/nu male mice; settings: ABTL0812 120 mg/kg oral; gemcitabine 50 mg/kg and cisplatin 2 mg/kg i.p. once a week
Procedure: Methods: EGI-1 cell line was routinely cultured in DMEM 10% FBS and cells in an exponential growth phase were harvested and counted for tumor inoculation.
Treatment groups were: • Vehicle group (n=8): treated orally with 200 μl of water+5% glycerol four days a week and two injections i.p. of 100 μl of saline solution once a week • ABTL0812 (n=8): treated orally with 200 μl of 120 mg/kg of ABTL0812 resuspended in water+5% glycerol 5 times a week • Gemcitabine/cisplatin (n=8): treated with 100 μl of 50 mg/kg of gemcitabine administered i.p. and 100 μl of 2 mg/kg of cisplatin administered i.p. once a week • ABTL0812+gemcitabine/cisplatin (n=8): treated orally with 200 μl of 120 mg/kg of ABTL0812 four days a week and 100 μl of 50 mg/kg of gemcitabine administered i.p. and 100 μl of 2 mg/kg of cisplatin administered i.p. once a week

[7] = format: in vivo
Procedure: Methods: Forty-five female CD-1 mice were distributed by means of the body weight stratification method into nine experimental groups (A-I) (5 animals for group) that differed in the treatment or in the day on which the reference items (paclitaxel and carboplatin) were administered.
The table below summarizes the treatment groups. Please note that the same administration schedule and doses were administered as in the previous efficacy studies.
The safety assessment relied on observed mortality, local and systemic clinical signs, body weight and food consumption recorded throughout the whole study. In addition, clinical pathology determinations (biochemistry and hematology) were performed before sacrifice in all animals. At the end of the observation period (one day after the last administration), all surviving animals were sacrificed and subjected to a gross necropsy. Moreover, the safety assessment was also based on the weight of selected target organs collected at sacrifice.

[8] = tested on: A549 (human lung carcinoma) cell line with mutated KRAS; experiment: Cell viability (MTT) of ABTL0812 in combination with paclitaxel, A549; format: cell-based; settings: A549, 72 hours, 0.1% FBS, single agent
Procedure: as §1, §2

H157 cells = experiment: Cell viability (MTT) of ABTL0812 in combination with paclitaxel, H157; format: cell-based, human; settings: H157, 48 hours, 0.1% FBS, single agent
Procedure: as §1, §2

CCCCC/C=C\C/C=C\CCCCCCC(O)C(=O)O (stereo not drawn) [ABTL0812, COOH—CHOH—(CH2)6—(CH═CH—CH2)2—(CH2)3—CH3]
tumor progression (size, weight) ([1]; ABTL0812 120 mg/kg oral daily, cisplatin 2 mg/kg i.p. twice a week): inhibits tumor progression with an efficacy that is similar to cisplatin | Hematocrit ([1]; mouse, in vivo): 40.2 ± 1.4% | RBC ([1]; mouse, in vivo): 7.9 ± 0.4 ×10^6/μL | WBC ([1]; mouse, in vivo): 3.9 ± 1.3 ×10^3/μL | hematological safety ([1]; mouse, in vivo): no impact on blood hematocrit | loss of body weight (transient) ([1]; mouse, in vivo): < 10% | metastasis formation in lung and liver ([1]; ten days of treatment, luciferase-expressing cells ex vivo): inhibited metastasis formation | IC50 [2]: 42 µM | tumor volume [3]: significantly reduced tumor volume when compared to control animals | survival (Kaplan-Meier) [4]: 0% | IC50 (H1957 cells): 43 µM | cytotoxicity alone at the concentration chosen for the combination ([5]; MDB-DA-231): < 10% | IC50 ([5]; MDB-DA-231, 48h, 0.5% FBS, MTT, single agent): 29 µM | tumor volume [6]: did not show tumor volume reduction compared to vehicle until the last day of treatment | Biochemistry Creat ([7]; mouse, in vivo): 9.18 µmol/L | Biochemistry Triglyc ([7]; mouse, in vivo): 0.94 mmol/L | Biochemistry Urea ([7]; mouse, in vivo): 3.66 mmol/L | Body Weight Gain D 8-11 ([7]; mouse, in vivo): 0.138 g | Hematology PLT ([7]; mouse, in vivo): 1293 ×10^3/μL | Hematology RBC ([7]; mouse, in vivo): 9.57 ×10^6/μL | Hematology WBC ([7]; mouse, in vivo): 5.94 ×10^3/μL | mortality and tolerability ([7]; two-week administration): did not cause mortality and was well tolerated | IC50 [8]: 49 µM | IC50 (H157 cells): 23 µM
